Counter-ions that a name gives are not always drawn. Like-named read-outs stand apart in the source and are kept apart here.
Tests used:
Human CB2 [1] = target: T1, Human CB2 (Homo sapiens, UniProt P34972); experiment: Antibody-capture SPA GTP-γ-35S binding, antagonist/inverse agonist, Sf9 cell membranes; type: biochemical
T1 construct: purchased Applied Cell Sciences, Gaithersburg, Md; PerkinElmer Life Sciences, Boston, Mass; host or cells: Sf9 insect cells (recombinant expression), membranes
Method: (§1) Antibody-Capture SPA GTP-γ-^35S Binding
(§2) Test exemplified compounds. Measure GTP-γ^35S binding in a 96 well format using a modified antibody capture technique previously described (DeLapp et al. 1999). Briefly incubate, CHO or Sf9 cell membranes expressing CB1 or CB2, respectively (Applied Cell Sciences, Gaithersburg, Md.; PerkinElmer Life Sciences, Boston, Mass.); prepare as previously described (DeLapp et al., 1999), exemplified compounds and 500 μM GTP-γ-^35S (PerkinElmer Life Sciences, Boston, Mass.) for 30 minutes (incubate all at room temperature) in GTP-binding assay buffer (20 mM Hepes, 100 mM NaCl, 5 mM MgCl2, pH 7.4). Perform antagonist dose responses in the presence of a saturating dose of full agonist (methanandamide). Add a mixture containing 0.27% Nonidet P40 detergent (Roche, Indianapolis, Ind.), anti-Gi antibody (final dilution of 1:300; Covance, Princeton, N.J.), and 1.25 mg anti-rabbit antibody scintillation proximity assay beads (GE Healthcare, Piscataway, N.J.) and seal the plates and incubate for an additional 3 hours. Centrifuge the plates at 700×g for 10 minutes using a Beckman GS-6R centrifuge and count for 1 minute per well using a Wallac MicroBeta TriLux scintillation counter (PerkinElmer, Boston, Mass.).
(§3) To analyze data, first subtract background from all wells. Determine percent agonist efficacy by normalizing agonist/inverse agonist dose response data to a full agonist (methanandamide) response. Calculating antagonist percent inhibition data by normalizing to results generated with a saturating concentration of methanandamide. Analyze the data using a 4-parameter logistic reduced fit with Activity Base and XLFit3 (IDBS, Emeryville, Calif.). Determine Kb values using a modification of the Cheng-Prusoff relationship: Kb=IC50/(1+[agonist]/EC50) where IC50 is determined from a four parameter fit of displacement curves, [agonist]=EC50 of full agonist, and EC50 is determined from a four parameter fit of a full agonist concentration response curve (Cheng and Prusoff 1973). Calculate mean Kb values as a mean of at least three independent determinations±standard error of the mean (SEM).

Bioavailability rat = type: in vivo
Description: (§4) Methods for accessing bioavailabilty are well appreciated in the art. One such reference is Medicinal Research Reviews Vol 21 No. 5 382-396 (2001).

Bioavailability dog = type: in vivo
Description: as §4

hCB1 [2] = target: T2, hCB1 (Homo sapiens, UniProt P21554); experiment: hCB1 SPA GTPγ35S Sf9 membranes, antagonist; type: biochemical; design: purchased Applied Cell Sciences, Gaithersburg, Md; PerkinElmer Life Sciences, Boston, Mass; host or cells: Sf9 insect cells (recombinant expression), membranes; conditions: hCB1 SPA GTPγ35S Sf9 Mem 22.7 ug protein/well Antagonist; read-out: Inverse Agonist Potency CB1 (Kb)
T2 sequence (P21554 whole entry): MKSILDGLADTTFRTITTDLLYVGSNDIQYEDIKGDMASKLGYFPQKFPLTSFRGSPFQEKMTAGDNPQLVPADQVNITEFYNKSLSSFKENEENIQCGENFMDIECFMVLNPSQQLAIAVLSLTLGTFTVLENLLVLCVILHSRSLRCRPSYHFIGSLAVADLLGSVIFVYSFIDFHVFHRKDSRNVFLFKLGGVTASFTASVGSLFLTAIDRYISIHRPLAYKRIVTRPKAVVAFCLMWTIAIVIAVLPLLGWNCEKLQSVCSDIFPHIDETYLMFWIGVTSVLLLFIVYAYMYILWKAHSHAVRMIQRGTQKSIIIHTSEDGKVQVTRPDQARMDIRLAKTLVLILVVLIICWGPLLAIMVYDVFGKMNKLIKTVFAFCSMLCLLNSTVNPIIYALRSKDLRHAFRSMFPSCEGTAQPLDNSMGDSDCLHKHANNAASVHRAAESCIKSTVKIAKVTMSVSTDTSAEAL
Method: as §1
as §2, with “Briefly incubate, CHO or Sf9 cell membranes expressing CB1 or CB2, respectively (Applied Cell Sciences, Gaithersburg, Md.; PerkinElmer Life Sciences, Boston, Mass.); prepare as previously described (DeLapp et al., 1999), exemplified compounds and 500 μM GTP-γ-^35S (PerkinElmer Life Sciences, Boston, Mass.) for 30 minutes (incubate all at room temperature) in GTP-binding assay buffer (20 mM Hepes, 100 mM NaCl, 5 mM MgCl2, pH 7.4).” left out
as §3

Rat CB1 = target: T3, Rat CB1 (Rattus norvegicus, UniProt P20272); experiment: Antibody-capture SPA GTP-γ-35S binding, antagonist/inverse agonist, CHO cell membranes; type: biochemical
T3 construct: purchased Applied Cell Sciences, Gaithersburg, Md; PerkinElmer Life Sciences, Boston, Mass; host or cells: CHO cells (recombinant expression), membranes
T3 sequence (P20272 whole entry): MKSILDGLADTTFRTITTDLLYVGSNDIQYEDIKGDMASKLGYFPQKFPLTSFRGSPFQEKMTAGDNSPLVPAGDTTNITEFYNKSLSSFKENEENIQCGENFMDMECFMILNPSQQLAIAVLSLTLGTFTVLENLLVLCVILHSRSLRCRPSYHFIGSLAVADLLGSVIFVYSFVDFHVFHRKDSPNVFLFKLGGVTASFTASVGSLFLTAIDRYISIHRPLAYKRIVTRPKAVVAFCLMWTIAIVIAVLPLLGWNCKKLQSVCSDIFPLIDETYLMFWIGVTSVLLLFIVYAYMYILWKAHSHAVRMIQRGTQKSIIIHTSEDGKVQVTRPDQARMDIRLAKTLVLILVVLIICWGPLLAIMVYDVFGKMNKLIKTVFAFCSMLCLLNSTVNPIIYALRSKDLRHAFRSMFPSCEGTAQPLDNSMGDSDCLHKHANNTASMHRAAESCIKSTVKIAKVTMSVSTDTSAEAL
Method: as §1, §2, §3

hCB1 [3] = target: T2, hCB1; experiment: as above; type: biochemical
Method: as §1, §2, §3

Human CB2 [4] = target: T1, Human CB2; experiment: Agonist GTP-binding, Sf9 membranes; type: biochemical
Method: as §1
Test exemplified compounds. Measure GTP-γ^35S binding in a 96 well format using a modified antibody capture technique previously described (DeLapp et al. 1999). Briefly incubate, CHO or Sf9 cell membranes expressing CB1 or CB2, respectively (Applied Cell Sciences, Gaithersburg, Md.; PerkinElmer Life Sciences, Boston, Mass.); prepare as previously described (DeLapp et al., 1999), exemplified compounds and […] GTP-γ-^35S (PerkinElmer Life Sciences, Boston, Mass.) for 30 minutes (incubate all at room temperature) in GTP-binding assay buffer (20 mM Hepes, 100 mM NaCl, 5 mM MgCl2, pH 7.4). Perform antagonist dose responses in the presence of a saturating dose of full agonist (methanandamide). […]
To analyze data, first subtract background from all wells. […] Determine Kb values using a modification of the Cheng-Prusoff relationship: Kb=IC50/(1+[agonist]/EC50) where IC50 is determined from a four parameter fit of displacement curves, [agonist]=EC50 of full agonist, and EC50 is determined from a four parameter fit of a full agonist concentration response curve (Cheng and Prusoff 1973). […]

NIH-Swiss mice = experiment: Forced swim test (FST); type: in vivo; conditions: minimum effective dose, decrease in immobility time
Method: Receive NIH male Swiss mice (Harlan Sprague-Dawley, weigh 20-25 g) 7-10 days prior to testing. House 12 mice/cage. Test animals that weigh 25-30 g. On the day of test, bring animals to the testing room at least 1 hr prior to dosing, when doing starts, 6-8 min. intervals between each dosing with mouse receiving either vehicle or exemplified compounds by p.o., and then put it into a clean cage afterwards (4 mice/cage). Depending on pretreatment time, start the test accordingly.
Mice FST: Place NIH-Swiss mice in clear plastic cylinders (diameter: 10 cm; height: 25 cm) filled to 6 cm with 22-25° C. water for six min. Record the duration of immobility during the last 4 min. of the six-minute trial. A mouse is regarded as immobile when floating motionless or making only those movements necessary to keep its head above the water.
Copy the data-immobility (second) into JMP data sheet, and analyze by ANOVA-Dunnett's test. Record the minimum effective dose (MED) as the lowest dose of compound at which statistically significant decrease in immobility time is observed versus a vehicle control.

hCB1 [5] = target: T2, hCB1; experiment: Agonist GTP-binding, Sf9 membranes; type: biochemical; design: purchased Applied Cell Sciences, Gaithersburg, Md; PerkinElmer Life Sciences, Boston, Mass; host or cells: Sf9 insect cells (recombinant expression), membranes
Method: as §1
as §2, with “Briefly incubate, CHO or Sf9 cell membranes expressing CB1 or CB2, respectively (Applied Cell Sciences, Gaithersburg, Md.; PerkinElmer Life Sciences, Boston, Mass.); prepare as previously described (DeLapp et al., 1999), exemplified compounds and 500 μM GTP-γ-^35S (PerkinElmer Life Sciences, Boston, Mass.) for 30 minutes (incubate all at room temperature) in GTP-binding assay buffer (20 mM Hepes, 100 mM NaCl, 5 mM MgCl2, pH 7.4).” left out
as §3

[6] = Antibody-capture SPA GTP-γ-35S binding, human CB2, read-out: Inverse Agonist Potency CB2 (Kb)

T1 sequence (P34972 whole entry): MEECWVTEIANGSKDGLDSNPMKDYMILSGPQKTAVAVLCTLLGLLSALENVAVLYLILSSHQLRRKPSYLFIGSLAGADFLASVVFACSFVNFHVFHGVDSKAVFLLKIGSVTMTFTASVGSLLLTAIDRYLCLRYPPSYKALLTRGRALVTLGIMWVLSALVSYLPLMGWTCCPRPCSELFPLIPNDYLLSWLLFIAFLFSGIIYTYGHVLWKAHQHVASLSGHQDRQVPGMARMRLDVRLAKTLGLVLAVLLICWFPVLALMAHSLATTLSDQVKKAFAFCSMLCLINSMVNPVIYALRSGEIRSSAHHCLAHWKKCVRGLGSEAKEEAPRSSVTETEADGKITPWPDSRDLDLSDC

Kb (Human CB2 [1]; [6]) | Bioavail. Rat (Bioavailability rat) | Bioavail. Dog (Bioavailability dog) | Kb (hCB1 [2]) | Compound | other results
390 nM | 7% | 36% | 0.91 nM | Cc1cccc([C@H]2C[C@@H](NC(C)(C)c3ccc(C(F)(F)F)nc3)C(=O)N2c2ccc(OC(F)(F)F)cc2)c1 [Example 1, (3R,5R)-3-[1-Methyl-1-(6-trifluoromethyl-pyridin-3-yl)-ethylamino]-5-(m-tolyl)-1-(4-trifluoromethoxy-phenyl)-pyrrolidin-2-one tosylate] | –
> 7230 nM | – | – | 107 nM | CC(C)(N[C@H]1C[C@@H](c2ccccc2)N(c2ccc(OC(F)(F)F)cc2)C1=O)c1ccc(C(F)(F)F)nc1 [Example 4, (3S,5S)-3-[1-Methyl-1-(6-trifluoromethyl-pyridin-3-yl)-ethylamino]-5-phenyl-1-(4-trifluoromethoxy-phenyl)-pyrrolidin-2-one tosylate] | –
> 4000 nM | – | – | 2.38 nM | CC(F)(F)c1cccc([C@H]2C[C@@H](NC(C)(C)c3ccc(C(F)(F)F)nc3)C(=O)N2c2ccc(OC(F)(F)F)cc2)c1 [Example 32B, (3R,5R)-3-[1-Methyl-1-(6-trifluoromethyl-pyridin-3-yl)-ethyl-amino]-5-[3-(1,1-difluoro-ethyl)-phenyl]-1-(4-trifluoromethoxy-phenyl)-pyrrolidin-2-one] | –
> 6900 nM | 77% | 38% | 0.71 nM | CC(C)(N[C@@H]1C[C@H](c2cccc(OC(F)(F)C(F)F)c2)N(c2ccc(C(F)(F)F)cc2)C1=O)c1ccc(C(F)(F)F)nc1 [Example 40, (3R,5R)-3-[1-Methyl-1-(6-trifluoromethyl-pyridin-3-yl)-ethylamino]-5-[3-(1,1,2,2-tetrafluoro-ethoxy)-phenyl]-1-(4-trifluoromethyl-phenyl)-pyrrolidin-2-one] | –
> 14200 nM | 36% | 47% | 0.91 nM | CC(C)(N[C@@H]1C[C@H](c2cccc(OC(F)(F)C(F)F)c2)N(c2ccc(Cl)cc2)C1=O)c1ccc(C(F)(F)F)nc1 [Example 41, (3R,5R)-3-[1-Methyl-1-(6-trifluoromethyl-pyridin-3-yl)-ethylamino]-5-[3-(1,1,2,2-tetrafluoro-ethoxy)-phenyl]-1-(4-chloro-phenyl)-pyrrolidin-2-one] | –
4030 nM | – | – | 72.7 nM | CC(C)(N[C@H]1C[C@H](c2ccccc2)N(c2ccc(OC(F)(F)F)cc2)C1=O)c1ccc(C(F)(F)F)nc1 [Example 44, (3S,5R)-3-[1-Methyl-1-(6-trifluoromethyl-pyridin-3-yl)-ethylamino]-5-phenyl-1-(4-trifluoromethoxy-phenyl)-pyrrolidin-2-one] | –
– | 36% | 40% | 2.6 nM | CC(C)(N[C@@H]1C[C@H](c2ccccc2)N(c2ccc(OC(F)(F)F)cc2)C1=O)c1ccc(C(F)(F)F)nc1.Cc1ccc(S(=O)(=O)O)cc1 [Example 49, (3R,5R)-3-[1-Methyl-1-(6-trifluoromethyl-pyridin-3-yl)-ethylamino]-5-phenyl-1-(4-trifluoromethoxy-phenyl)-pyrrolidin-2-one tosylate] | Kb (Rat CB1; Rat CB1 (CHO cells), GTP binding, mean ± SEM, read-out: Inverse Agonist Potency [Kb (nM)]): 0.264 ± 0.02 nM; CB1 antagonism/inverse agonism, in words (Rat CB1; rat CB1 receptors): potent; Kb (hCB1 [3]; Human CB1 (CHO cells), GTP binding, mean ± SEM, read-out: Inverse Agonist Potency [Kb (nM)]): 0.226 ± 0.01 nM; CB1 antagonism/inverse agonism, in words (hCB1 [3]; human CB1 receptors): potent; Kb (Human CB2 [1]; Human CB2 (Sf9 cells), GTP binding, mean ± SEM, read-out: Inverse Agonist Potency [Kb (nM)]): 587 ± 191 nM; CB2 antagonism, in words (Human CB2 [1]; human CB2 receptors): low antagonism; Agonist Efficacy % (Human CB2 [4]; normalized to full agonist methanandamide): 0%; EC50 (Human CB2 [4]; read-out: Agonist Potency EC50): > 10000 nM; Forced Swim Test (MED, mg/kg, po) (NIH-Swiss mice): 3 mg/kg; Agonist Efficacy % (hCB1 [5]; Human CB1, Sf9 membranes, normalized to full agonist methanandamide): −38.3 ± 1.0%; EC50 (hCB1 [5]; Human CB1, Sf9 membranes, read-out: Agonist Potency EC50): 0.81 ± 0.19 nM; agonist efficacy at the human CB1 receptor (inverse agonism), in words (hCB1 [5]; human CB1, basal constitutive activity): less than zero

From US8168659B2, “1, 5-diphenyl-3-benzylamino-1, 5-dihydropyrrolidin-2-one as CB1 receptor modulators” (Eli Lilly and Company, priority 2006, dated 2012)
